# Assay results reported in PMC7614683, “A small molecule PI3Kα activator for cardioprotection and neuroregeneration” (Nature, 2023).
# Target: T1, full length p110α/p85α (Homo sapiens, UniProt P42336)
# T1 construct: Full-length human p110α was expressed either in a complex with full-length human p85α (for HTS, biochemistry and HDX-MS); 6xHis tag followed by TEV protease site (N); host or cells: Spodoptera frugiperda Sf9, baculovirus
# Experiment: HDX-MS
# Type: binding
# Experimental: Sample preparation: HDX-MS experiments were carried out as described previously. […] In total, three biological replicates, i.e. three separate protein preparations, each with exchange experiments carried out in triplicate were conducted. Data presented in the manuscript is a single biological replicate. Data acquisition and analysis were as follows: Each sample was thawed and injected onto an M-Class Acquity UPLC with HDX Technology (Waters) kept at 0.1°C. Proteins were digested in-line using an Enzymate Pepsin Column (Waters, #186007233) at 15°C for 2 min at 200 μl/min. Peptic peptides were then eluted onto an Acquity UPLC BEH C18 Column (Waters, #186002346) equilibrated in Pepsin-A buffer (0.1% formic acid) and separated using a 5-35% gradient of Pepsin-B buffer (0.1% formic acid, 99% acetonitrile) over 7 min at a flowrate of 40 μl/min. Data were collected on a Waters Cyclic IMS, with an electrospray ionisation source, from 50-2000 m/z. Data were collected in the HDMS^E mode. A single pass of the cyclic IMS was conducted. A “blank” sample of protein dilution buffer with quench was run between samples, and carry-over of peptides was routinely monitored. Five replicates were used to identify non-deuterated peptides. Criteria used to include peptides in the HDX-MS dataset were: minimum intensity 5000, minimum sequence length 5, maximum sequence length 25, a minimum of 3 fragment ions, a minimum of 0.1 products per amino acid, a minimum score of 6.62, a maximum MH+ Error of 10 ppm, identification in at least two datasets with a retention time RSD of less than 10%. Data was analysed using Protein Lynx Global Server (Waters) and DynamX (Waters). All peptides were manually inspected for EX1 kinetics and sufficient quality of the peptide envelope. Data quality, experiment design, and reporting of data meets the criteria as determined by the HDX-MS community. Uptake files were created using Baryonyx. Data are available via ProteomeXchange with identifier PXD037721.
# [1] = PK3CA_HUMAN peptide 334-341, time point 1 of 5
# [2] = PK3CA_HUMAN peptide 334-341, time point 2 of 5
# [3] = PK3CA_HUMAN peptide 334-341, time point 3 of 5
# [4] = PK3CA_HUMAN peptide 334-341, time point 4 of 5
# [5] = PK3CA_HUMAN peptide 334-341, time point 5 of 5
# [6] = PK3CA_HUMAN peptide 342-356, time point 1 of 5
# [7] = PK3CA_HUMAN peptide 342-356, time point 2 of 5
# [8] = PK3CA_HUMAN peptide 342-356, time point 3 of 5
# [9] = PK3CA_HUMAN peptide 342-356, time point 4 of 5
# [10] = PK3CA_HUMAN peptide 342-356, time point 5 of 5
# [11] = PK3CA_HUMAN peptide 356-368, time point 1 of 5
# [12] = PK3CA_HUMAN peptide 356-368, time point 2 of 5
# [13] = PK3CA_HUMAN peptide 356-368, time point 3 of 5
# [14] = PK3CA_HUMAN peptide 356-368, time point 4 of 5
# [15] = PK3CA_HUMAN peptide 356-368, time point 5 of 5
# [16] = PK3CA_HUMAN peptide 369-380, time point 1 of 5
# [17] = PK3CA_HUMAN peptide 369-380, time point 2 of 5
# [18] = PK3CA_HUMAN peptide 369-380, time point 3 of 5
# [19] = PK3CA_HUMAN peptide 369-380, time point 4 of 5
# [20] = PK3CA_HUMAN peptide 369-380, time point 5 of 5
# [21] = PK3CA_HUMAN peptide 371-380, time point 1 of 5
# [22] = PK3CA_HUMAN peptide 371-380, time point 2 of 5
# [23] = PK3CA_HUMAN peptide 371-380, time point 3 of 5
# [24] = PK3CA_HUMAN peptide 371-380, time point 4 of 5
# [25] = PK3CA_HUMAN peptide 371-380, time point 5 of 5
# T1 sequence (P42336 whole entry): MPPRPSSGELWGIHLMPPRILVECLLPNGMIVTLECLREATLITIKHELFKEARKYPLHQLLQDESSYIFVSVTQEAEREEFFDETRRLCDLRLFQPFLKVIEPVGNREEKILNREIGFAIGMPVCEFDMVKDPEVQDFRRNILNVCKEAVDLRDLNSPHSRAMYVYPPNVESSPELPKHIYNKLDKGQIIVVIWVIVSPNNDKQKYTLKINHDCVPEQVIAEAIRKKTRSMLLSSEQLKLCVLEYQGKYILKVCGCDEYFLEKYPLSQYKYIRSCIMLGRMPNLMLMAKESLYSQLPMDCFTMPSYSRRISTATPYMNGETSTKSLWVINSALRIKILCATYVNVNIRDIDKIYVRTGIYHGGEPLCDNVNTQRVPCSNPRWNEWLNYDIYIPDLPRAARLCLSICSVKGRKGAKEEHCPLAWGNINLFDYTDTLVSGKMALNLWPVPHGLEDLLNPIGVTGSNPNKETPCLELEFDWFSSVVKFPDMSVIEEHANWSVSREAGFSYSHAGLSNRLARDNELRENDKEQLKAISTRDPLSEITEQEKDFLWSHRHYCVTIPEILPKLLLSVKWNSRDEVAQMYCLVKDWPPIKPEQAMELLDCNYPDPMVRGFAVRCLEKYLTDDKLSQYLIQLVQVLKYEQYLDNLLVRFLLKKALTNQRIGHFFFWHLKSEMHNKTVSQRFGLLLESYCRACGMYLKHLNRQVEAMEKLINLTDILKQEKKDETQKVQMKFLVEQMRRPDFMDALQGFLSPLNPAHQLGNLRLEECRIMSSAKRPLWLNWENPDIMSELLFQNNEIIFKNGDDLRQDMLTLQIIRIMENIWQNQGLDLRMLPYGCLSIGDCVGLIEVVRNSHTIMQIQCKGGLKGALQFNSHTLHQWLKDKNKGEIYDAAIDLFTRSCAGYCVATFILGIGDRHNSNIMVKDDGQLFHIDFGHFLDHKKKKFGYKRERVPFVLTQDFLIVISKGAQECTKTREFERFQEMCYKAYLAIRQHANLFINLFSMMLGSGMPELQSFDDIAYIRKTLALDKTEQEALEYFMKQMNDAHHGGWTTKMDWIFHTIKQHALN
# T1 sequence (P27986 whole entry partner): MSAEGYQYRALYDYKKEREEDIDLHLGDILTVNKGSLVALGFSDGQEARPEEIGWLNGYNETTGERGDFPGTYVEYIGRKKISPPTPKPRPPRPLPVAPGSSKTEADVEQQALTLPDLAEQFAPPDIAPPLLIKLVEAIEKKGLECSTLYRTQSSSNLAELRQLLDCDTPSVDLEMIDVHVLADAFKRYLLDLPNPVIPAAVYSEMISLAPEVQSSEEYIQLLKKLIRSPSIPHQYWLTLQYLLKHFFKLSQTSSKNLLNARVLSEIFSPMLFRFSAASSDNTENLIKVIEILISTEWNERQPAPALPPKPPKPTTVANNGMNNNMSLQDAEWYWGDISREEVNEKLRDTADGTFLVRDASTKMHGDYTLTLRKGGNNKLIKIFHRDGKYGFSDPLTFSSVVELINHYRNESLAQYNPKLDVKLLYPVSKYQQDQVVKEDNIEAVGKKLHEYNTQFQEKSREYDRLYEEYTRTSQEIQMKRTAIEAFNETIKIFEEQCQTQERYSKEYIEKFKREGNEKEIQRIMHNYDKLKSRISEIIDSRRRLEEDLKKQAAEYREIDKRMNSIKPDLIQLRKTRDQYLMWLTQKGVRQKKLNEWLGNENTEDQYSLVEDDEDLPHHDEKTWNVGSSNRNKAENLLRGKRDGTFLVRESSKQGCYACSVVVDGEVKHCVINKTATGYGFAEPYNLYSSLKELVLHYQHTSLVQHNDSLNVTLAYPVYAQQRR
smiles,measurement,setting,value
CCN1CCN(c2ccc(Nc3cc(Nc4cccc5c4N(C(C)=O)CC5)ccn3)cc2)CC1 [Compound 1938],HDX difference (Da),"PK3CA_HUMAN peptide 326-333, time point 5 of 5",-0.29 Da
same,HDX difference (%D),[1],-1.6%
same,HDX difference (Da),[1],-0.11 Da
same,HDX difference (%D),[2],-0.186%
same,HDX difference (Da),[2],-0.013 Da
same,HDX difference (%D),[3],-0.0541%
same,HDX difference (Da),[3],-0.00379 Da
same,HDX difference (%D),[4],0.367%
same,HDX difference (Da),[4],0.0257 Da
same,HDX difference (%D),[5],0.162%
same,HDX difference (Da),[5],0.0113 Da
same,HDX difference (%D),[6],-1.7%
same,HDX difference (Da),[6],-0.24 Da
same,HDX difference (%D),[7],0.845%
same,HDX difference (Da),[7],0.12 Da
same,HDX difference (%D),[8],0.00161%
same,HDX difference (Da),[8],0.000225 Da
same,HDX difference (%D),[9],1.1%
same,HDX difference (Da),[9],0.16 Da
same,HDX difference (%D),[10],0.6%
same,HDX difference (Da),[10],0.09 Da
same,HDX difference (%D),[11],-0.8%
same,HDX difference (Da),[11],-0.10 Da
same,HDX difference (%D),[12],-1.0%
same,HDX difference (Da),[12],-0.12 Da
same,HDX difference (%D),[13],0.8%
same,HDX difference (Da),[13],0.09 Da
same,HDX difference (%D),[14],0.0672%
same,HDX difference (Da),[14],0.00807 Da
same,HDX difference (%D),[15],0.6%
same,HDX difference (Da),[15],0.0745 Da
same,HDX difference (%D),[16],-2.7%
same,HDX difference (Da),[16],-0.30 Da
same,HDX difference (%D),[17],1.2%
same,HDX difference (Da),[17],0.14 Da
same,HDX difference (%D),[18],-1.1%
same,HDX difference (Da),[18],-0.12 Da
same,HDX difference (%D),[19],-0.8%
same,HDX difference (Da),[19],-0.08 Da
same,HDX difference (%D),[20],0.6%
same,HDX difference (Da),[20],0.07 Da
same,HDX difference (%D),[21],-3.7%
same,HDX difference (Da),[21],-0.33 Da
same,HDX difference (%D),[22],-0.454%
same,HDX difference (Da),[22],-0.04 Da
same,HDX difference (%D),[23],-1.7%
same,HDX difference (Da),[23],-0.15 Da
same,HDX difference (%D),[24],-2.6%
same,HDX difference (Da),[24],-0.23 Da
same,HDX difference (%D),[25],0.329%
same,HDX difference (Da),[25],0.03 Da
same,"HDX difference, percentage","PK3CA_HUMAN peptide 457-466, time column 1 of 5, deuterium exchange time 0.005",-0.467%
same,"HDX difference, percentage","PK3CA_HUMAN peptide 457-466, time column 2 of 5, deuterium exchange time 0.05",-0.449%
same,"HDX difference, percentage","PK3CA_HUMAN peptide 457-466, time column 3 of 5, deuterium exchange time 0.5",0.346%
same,"HDX difference, percentage","PK3CA_HUMAN peptide 457-466, time column 4 of 5, deuterium exchange time 5",-0.9%
same,"HDX difference, percentage","PK3CA_HUMAN peptide 457-466, time column 5 of 5",-1.0%
same,"HDX difference, percentage","PK3CA_HUMAN peptide 467-476, time column 1 of 5, deuterium exchange time 0.005",-1.4%
same,"HDX difference, percentage","PK3CA_HUMAN peptide 467-476, time column 2 of 5, deuterium exchange time 0.05",-0.5%
same,"HDX difference, percentage","PK3CA_HUMAN peptide 467-476, time column 3 of 5, deuterium exchange time 0.5",-0.7%
same,"HDX difference, percentage","PK3CA_HUMAN peptide 467-476, time column 4 of 5, deuterium exchange time 5",-0.9%
same,"HDX difference, percentage","PK3CA_HUMAN peptide 467-476, time column 5 of 5",-0.552%
same,"HDX difference, percentage","PK3CA_HUMAN peptide 477-486, time column 1 of 5, deuterium exchange time 0.005",-1.6%
same,"HDX difference, percentage","PK3CA_HUMAN peptide 477-486, time column 2 of 5, deuterium exchange time 0.05",0.186%
same,"HDX difference, percentage","PK3CA_HUMAN peptide 477-486, time column 3 of 5, deuterium exchange time 0.5",0.327%
same,"HDX difference, percentage","PK3CA_HUMAN peptide 477-486, time column 4 of 5, deuterium exchange time 5",-0.0919%
same,"HDX difference, percentage","PK3CA_HUMAN peptide 477-486, time column 5 of 5",0.0363%
same,"HDX difference, percentage","PK3CA_HUMAN peptide 487-495, time column 1 of 5, deuterium exchange time 0.005",-0.747%
same,"HDX difference, percentage","PK3CA_HUMAN peptide 487-495, time column 2 of 5, deuterium exchange time 0.05",0.4%
same,"HDX difference, percentage","PK3CA_HUMAN peptide 487-495, time column 3 of 5, deuterium exchange time 0.5",0.0115%
same,"HDX difference, percentage","PK3CA_HUMAN peptide 487-495, time column 4 of 5, deuterium exchange time 5",-0.8%
same,"HDX difference, percentage","PK3CA_HUMAN peptide 487-495, time column 5 of 5",-0.2%
same,"HDX difference, percentage","PK3CA_HUMAN peptide 487-498, time column 1 of 5, deuterium exchange time 0.005",-0.239%
same,"HDX difference, percentage","PK3CA_HUMAN peptide 487-498, time column 2 of 5, deuterium exchange time 0.05",-0.449%
same,"HDX difference, percentage","PK3CA_HUMAN peptide 487-498, time column 3 of 5, deuterium exchange time 0.5",0.176%
same,"HDX difference, percentage","PK3CA_HUMAN peptide 487-498, time column 4 of 5, deuterium exchange time 5",-1.0%
